Results from PubChem BioAssay AID248 (DTP/NCI, 2004).
Toxic doses and inconclusive results are not listed. Cut-off read from the data, not from the text of the source: active = T/C of 150% or more; inactive = T/C below 125%.

Test system: L1210 leukemia ip in BDF1 mice, survival T/C
Test: NCI In Vivo Anticancer Drug Screen. Data for tumor model L1210 Leukemia (intraperitoneal) in B6D2F1 (BDF1) mice
Conditions: endpoint: mean survival time, higher = longer survival
How it was run: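 Antitumor effect is assessed in tumor-bearing animals. Survival in the compound arm is compared with a vehicle-dosed control arm and expressed as their quotient.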

[1] = dose: 100.0 mg/kg/injection, schedule: Q01DX009 (ip), vehicle: Klucel (hydroxypropylcellulose) (HPC)
[2] = dose: 200.0 mg/kg/injection, schedule: Q01DX009 (ip), vehicle: Klucel (hydroxypropylcellulose) (HPC)
[3] = dose: 400.0 mg/kg/injection, schedule: Q01DX009 (ip), vehicle: Klucel (hydroxypropylcellulose) (HPC)
[4] = dose: 100.0 mg/kg/injection, schedule: Q04DX003 (ip), vehicle: Klucel (hydroxypropylcellulose) (HPC)
[5] = dose: 200.0 mg/kg/injection, schedule: Q04DX003 (ip), vehicle: Klucel (hydroxypropylcellulose) (HPC)

Measured: T/C

CCOC(=O)C(OCc1ccccc1)(C(=O)NCCc1ccc(OC)c(OC)c1)C(C)C (stereo not given)
inactive: dose: 25.0 mg/kg/injection, schedule: Q01DX009 (ip), vehicle: other 108 % of control | dose: 50.0 mg/kg/injection, schedule: Q01DX009 (ip), vehicle: other 108 % of control | dose: 100.0 mg/kg/injection, schedule: Q01DX009 (ip), vehicle: other 103 % of control | dose: 200.0 mg/kg/injection, schedule: Q01DX009 (ip), vehicle: other 99 % of control | dose: 400.0 mg/kg/injection, schedule: Q01DX009 (ip), vehicle: other 91 % of control

O=C(CNS(=O)(=O)c1ccccc1)c1ccc(Cl)cc1Cl
inactive: [1] 94 % of control | [2] 105 % of control | [3] 95 % of control

C=CC(=C)CCC=C(C)C
inactive: dose: 25.0 mg/kg/injection, schedule: Q04DX003 (ip), vehicle: saline 101 % of control | dose: 50.0 mg/kg/injection, schedule: Q04DX003 (ip), vehicle: saline 101 % of control | dose: 100.0 mg/kg/injection, schedule: Q04DX003 (ip), vehicle: saline 97 % of control | dose: 200.0 mg/kg/injection, schedule: Q04DX003 (ip), vehicle: saline 87 % of control | dose: 400.0 mg/kg/injection, schedule: Q04DX003 (ip), vehicle: saline 86 % of control

COc1cc(N(CCCl)CCCl)ccc1CN1CCCN(Cc2ccc(N(CCCl)CCCl)cc2OC)C1c1ccccc1O
inactive: dose: 50.0 mg/kg/injection, schedule: Q01DX009 (ip), vehicle: Klucel (hydroxypropylcellulose) (HPC) 96 % of control | [1] 109 % of control | [4] 110 % of control | [2] 90 % of control | [5] 103 % of control

COC(C)c1ccccc1 (stereo not given)
inactive: dose: 103.0 mg/kg/injection, schedule: Q01DX Z (ip), vehicle: methylcellulose (MC) 91 % of control | dose: 155.0 mg/kg/injection, schedule: Q01DX Z (ip), vehicle: methylcellulose (MC) 96 % of control | dose: 233.0 mg/kg/injection, schedule: Q01DX Z (ip), vehicle: methylcellulose (MC) 96 % of control | dose: 350.0 mg/kg/injection, schedule: Q01DX Z (ip), vehicle: methylcellulose (MC) 102 % of control

CC(=N)c1ccc(C)cc1
inactive: dose: 6.25 mg/kg/injection, schedule: Q01DX009 (ip), vehicle: saline with Tween-80 94 % of control | dose: 12.5 mg/kg/injection, schedule: Q01DX009 (ip), vehicle: saline with Tween-80 96 % of control | dose: 25.0 mg/kg/injection, schedule: Q01DX009 (ip), vehicle: saline with Tween-80 102 % of control

C=C(C)C(=O)Nc1c(C)cccc1C
inactive: [4] 105 % of control | [5] 94 % of control

O=C(OC1CCCCC1c1ccccc1)c1cc([N+](=O)[O-])cc([N+](=O)[O-])c1 (stereo not given)
inactive: dose: 100.0 mg/kg/injection, schedule: Q01DX001 (ip), vehicle: other 89 % of control | dose: 200.0 mg/kg/injection, schedule: Q01DX001 (ip), vehicle: other 89 % of control | dose: 400.0 mg/kg/injection, schedule: Q01DX001 (ip), vehicle: other 89 % of control

CC(C)(c1ccccc1)C(C)(C)c1ccccc1
inactive: [1] 91 % of control | [4] 92 % of control | [5] 96 % of control | [3] 89 % of control | dose: 400.0 mg/kg/injection, schedule: Q04DX003 (ip), vehicle: Klucel (hydroxypropylcellulose) (HPC) 96 % of control

CC(C)(O)C#N
inactive: dose: 5.0 mg/kg/injection, schedule: Q01DX001 (ip), vehicle: saline 108 % of control | dose: 10.0 mg/kg/injection, schedule: Q01DX001 (ip), vehicle: saline 102 % of control | dose: 15.0 mg/kg/injection, schedule: Q01DX001 (ip), vehicle: saline 104 % of control

CCC(CC)(Cc1ccccc1)C(=O)NC(=O)NOC
inactive: dose: 100.0 mg/kg/injection, schedule: Q01DX Z (ip), vehicle: methylcellulose (MC) 98 % of control | dose: 200.0 mg/kg/injection, schedule: Q01DX Z (ip), vehicle: methylcellulose (MC) 96 % of control

Cc1cccc2ccc3ccc4ccccc4c3c12
inactive: dose: 100.0 mg/kg/injection, schedule: Q04DX003 (ip), vehicle: saline with Tween-80 96 % of control | dose: 200.0 mg/kg/injection, schedule: Q04DX003 (ip), vehicle: saline with Tween-80 89 % of control | dose: 400.0 mg/kg/injection, schedule: Q04DX003 (ip), vehicle: saline with Tween-80 92 % of control

O=[N+]([O-])c1ccc(NC(=S)NS(=O)(=O)c2ccccc2)c(Cl)c1
inactive: [1] 97 % of control | [2] 97 % of control | [3] 88 % of control

CN(Cc1cnc2nc(N)nc(N)c2n1)c1cc(Cl)c(C(=O)NC(CCC(=O)O)C(=O)O)c(Cl)c1 (stereo not given)
active: dose: 100.0 mg/kg/injection, schedule: Q01DX009 (ip), vehicle: sodium bicarbonate 622 % of control
inactive: dose: 25.0 mg/kg/injection, schedule: Q01DX009 (ip), vehicle: sodium bicarbonate 106 % of control | dose: 50.0 mg/kg/injection, schedule: Q01DX009 (ip), vehicle: sodium bicarbonate 107 % of control | dose: 200.0 mg/kg/injection, schedule: Q01DX009 (ip), vehicle: sodium bicarbonate 120 % of control
